For 35 molecules, IC50 results are on record in US8404670B2 (Sunovion Pharmaceuticals Inc., priority 2009, dated 2013).

pIC50: −log10 of the molar value. Bounds are passed on as bounds.

This assay concerns the target T1, human histamine H3 receptor (Homo sapiens, UniProt Q9Y5N1).
T1 construct: host or cells: cells expressing the human H3 receptor
The assay can be described thus: H3 GTPγS assay (SPA method), histamine H3 in vitro assay. The assay is classed as biochemical. The note with it: GTPγ[35S] binding to membranes of cells expressing human H3; antagonist mode with R-γ-Me-Histamine at EC80 (30 nM); in one embodiment HCl salts tested; read-out: Potency (functional potency as indicated by IC50). On the technique in general: Binding of GTPγS marks nucleotide exchange on a G protein.

T1 sequence (Q9Y5N1 whole entry): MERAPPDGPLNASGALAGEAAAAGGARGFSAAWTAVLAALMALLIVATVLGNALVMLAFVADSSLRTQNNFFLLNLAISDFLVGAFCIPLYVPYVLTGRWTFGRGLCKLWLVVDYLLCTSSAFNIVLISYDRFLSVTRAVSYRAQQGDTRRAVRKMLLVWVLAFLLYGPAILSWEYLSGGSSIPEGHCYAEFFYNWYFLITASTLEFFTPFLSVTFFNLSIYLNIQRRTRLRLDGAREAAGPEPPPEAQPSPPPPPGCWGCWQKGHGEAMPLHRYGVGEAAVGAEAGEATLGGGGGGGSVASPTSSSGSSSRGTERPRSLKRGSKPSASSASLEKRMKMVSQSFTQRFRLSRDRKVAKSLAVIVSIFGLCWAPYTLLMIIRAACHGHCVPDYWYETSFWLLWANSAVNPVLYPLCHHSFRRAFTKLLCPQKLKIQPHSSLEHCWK

What is called pIC50 is the negative decadic logarithm of the IC50, by convention in mol/L. In the case of `O=C(C1CCC1)N1CCCC(c2ccc3c(c2)nc2n3CCN(C3CCC3)CC2)C1` (centres unmarked) [Compound 174], the pIC50 was no less than 8.00. The figure for `c1cc2c(cc1N1CCCCC1)nc1n2CCN(C2CCC2)CC1` [Compound 175, 3-cyclobutyl-8-(piperidin-1-yl)-2,3,4,5-tetrahydro-1H-benzo[4,5]imidazo[1,2-d][1,4]diazepine] is no less than 8.00; for `c1ccc2c(c1)CCN(c1ccc3c(c1)nc1n3CCN(C3CCC3)CC1)C2` [Compound 176, 3-cyclobutyl-8-(3,4-dihydroisoquinolin-2(1H)-yl)-2,3,4,5-tetrahydro-1H-benzo[4,5]imidazo[1,2-d][1,4]diazepine] it is no less than 8.00; for `Fc1ccc2c(c1)CN(c1ccc3c(c1)nc1n3CCN(C3CCC3)CC1)CC2` [Compound 177, 3-cyclobutyl-8-(7-fluoro-3,4-dihydroisoquinolin-2(1H)-yl)-2,3,4,5-tetrahydro-1H-benzo[4,5]imidazo[1,2-d][1,4]diazepine] it is no less than 8.00. The figure for `FC1(F)CCN(c2ccc3c(c2)nc2n3CCN(C3CCC3)CC2)CC1` [Compound 178, 3-cyclobutyl-8-(4,4-difluoropiperidin-1-yl)-2,3,4,5-tetrahydro-1H-benzo[4,5]imidazo[1,2-d][1,4]diazepine] is no less than 7.00; for `FC1CCN(c2ccc3c(c2)nc2n3CCN(C3CCC3)CC2)CC1` [Compound 179, 3-cyclobutyl-8-(4-fluoropiperidin-1-yl)-2,3,4,5-tetrahydro-1H-benzo[4,5]imidazo[1,2-d][1,4]diazepine] it is no less than 8.00; for `FC1CCCN(c2ccc3c(c2)nc2n3CCN(C3CCC3)CC2)C1` (centres unmarked) [Compound 180, 3-cyclobutyl-8-(3-fluoropiperidin-1-yl)-2,3,4,5-tetrahydro-1H-benzo[4,5]imidazo[1,2-d][1,4]diazepine] it is no less than 8.00. For `FC1CCN(c2ccc3c(c2)nc2n3CCN(C3CCC3)CC2)C1` (centres unmarked) [Compound 181, 3-cyclobutyl-8-(3-fluoropyrrolidin-1-yl)-2,3,4,5-tetrahydro-1H-benzo[4,5]imidazo[1,2-d][1,4]diazepine] the value was no less than 7.00; for `FC1(F)CCN(c2ccc3c(c2)nc2n3CCN(C3CCC3)CC2)C1` [Compound 182, 3-cyclobutyl-8-(3,3-difluoropyrrolidin-1-yl)-2,3,4,5-tetrahydro-1H-benzo[4,5]imidazo[1,2-d][1,4]diazepine], no less than 7.00; for `c1c2c(cc3c1nc1n3CCN(C3CCC3)CC1)CCNC2` [Compound 183, 9-cyclobutyl-2,3,4,7,8,9,10,11-octahydro-1H-[1,4]diazepino[7′,1′:2,3]imidazo[4,5-g]isoquinoline], no less than 7.00. Turning to `c1cc2c(nc3n2CCN(C2CCC2)CC3)c2c1CNCC2` [Compound 184, 10-cyclobutyl-2,3,4,8,9,10,11,12-octahydro-1H-[1,4]diazepino[1′,7′:1,2]imidazo[4,5-f]isoquinoline], the pIC50 was no less than 6.00.

Regarding `N#Cc1ccc(C(=O)N2CCc3cc4c(cc3C2)nc2n4CCN(C3CCC3)CC2)cc1` [Compound 185, 4-(9-cyclobutyl-2,3,4,7,8,9,10,11-octahydro-1H-[1,4]diazepino[7′,1′:2,3]imidazo[4,5-g]isoquinoline-2-carbonyl)benzonitrile], the negative-log IC50 (pIC50) was no less than 8.00. Turning to `O=C(C1CCC1)N1CCc2cc3c(cc2C1)nc1n3CCN(C2CCC2)CC1` [Compound 186, cyclobutyl(9-cyclobutyl-3,4,8,9,10,11-hexahydro-1H-[1,4]diazepino[7′,1′:2,3]imidazo[4,5-g]isoquinolin-2(7H)-yl)methanone], the pIC50 was no less than 7.00. For `CC(=O)N1CCc2cc3c(cc2C1)nc1n3CCN(C2CCC2)CC1` [Compound 187, 1-(9-cyclobutyl-3,4,8,9,10,11-hexahydro-1H-[1,4]diazepino[7′,1′:2,3]imidazo[4,5-g]isoquinolin-2(7H)-yl)ethanone] the value was no less than 8.00; for `CC(=O)N1CCc2c(ccc3c2nc2n3CCN(C3CCC3)CC2)C1` [Compound 188, 1-(10-cyclobutyl-9,10,11,12-tetrahydro-1H-[1,4]diazepino[1′,7′:1,2]imidazo[4,5-f]isoquinolin-3(2H,4H,8H)-yl)ethanone], no less than 6.00. For `c1c2c(cc3c1nc1n3CCN(C3CCC3)CC1)CNCC2` [Compound 189, 9-cyclobutyl-2,3,4,7,8,9,10,11-octahydro-1H-[1,4]diazepino[1′,7′:1,2]imidazo[4,5-g]isoquinoline], the pIC50 was no less than 7.00.

With `c1cnc(N2CCc3cc4nc5n(c4cc3C2)CCN(C2CCC2)CC5)cn1` [Compound 190, 9-cyclobutyl-2-(pyrazin-2-yl)-2,3,4,7,8,9,10,11-octahydro-1H-[1,4]diazepino[1′,7′:1,2]imidazo[4,5-g]isoquinoline], the negative-log IC50 (pIC50) was no less than 8.00. For `O=C(C1CCC1)N1CCc2cc3nc4n(c3cc2C1)CCN(C1CCC1)CC4` [Compound 191, cyclobutyl(9-cyclobutyl-3,4,8,9,10,11-hexahydro-1H-[1,4]diazepino[1′,7′:1,2]imidazo[4,5-g]isoquinolin-2 (7H)-yl)methanone] the value was no less than 7.00; for `N#Cc1ccc(C(=O)N2CCc3cc4nc5n(c4cc3C2)CCN(C2CCC2)CC5)cc1` [Compound 192, 4-(9-cyclobutyl-2,3,4,7,8,9,10,11-octahydro-1H-[1,4]diazepino[1′,7′:1,2]imidazo[4,5-g]isoquinoline-2-carbonyl)benzonitrile], no less than 7.00. For `c1cnc(N2CCc3cc4nc5n(c4cc3C2)CCN(C2CCC2)CC5)nc1` [Compound 193, 9-cyclobutyl-2-(pyrimidin-2-yl)-2,3,4,7,8,9,10,11-octahydro-1H-[1,4]diazepino[1′,7′:1,2]imidazo[4,5-g]isoquinoline] the value was no less than 7.00.

Consider `CC(=O)N1CCc2cc3nc4n(c3cc2C1)CCN(C1CCC1)CC4` [Compound 194, 1-(9-cyclobutyl-3,4,8,9,10,11-hexahydro-1H-[1,4]diazepino[1′,7′:1,2]imidazo[4,5-g]isoquinolin-2(7H)-yl)ethanone], for which the negative-log IC50 (pIC50) is no less than 7.00. In the case of `Cc1cn2cc(-c3ccc4c(c3)nc3n4CCN(C4CCC4)CC3)ccc2n1` [Compound 195, 3-cyclobutyl-8-(2-methylimidazo[1,2-a]pyridin-6-yl)-2,3,4,5-tetrahydro-1H-benzo[4,5]imidazo[1,2-d][1,4]diazepine], the pIC50 was no less than 8.00. The figure for `c1cc2ccc(-c3ccc4c(c3)nc3n4CCN(C4CCC4)CC3)nc2[nH]1` [Compound 196, 3-cyclobutyl-8-(1H-pyrrolo[2,3-b]pyridin-6-yl)-2,3,4,5-tetrahydro-1H-benzo[4,5]imidazo[1,2-d][1,4]diazepine] is no less than 7.00; for `c1cc2nc(-c3ccc4c(c3)nc3n4CCN(C4CCC4)CC3)ccc2[nH]1` [Compound 197, 3-cyclobutyl-8-(1H-pyrrolo[3,2-b]pyridin-5-yl)-2,3,4,5-tetrahydro-1H-benzo[4,5]imidazo[1,2-d][1,4]diazepine] it is no less than 8.00. For `c1cc2c(cc1-c1ccc3cncn3c1)nc1n2CCN(C2CCC2)CC1` [Compound 198, 3-cyclobutyl-8-(imidazo[1,5-a]pyridin-6-yl)-2,3,4,5-tetrahydro-1H-benzo[4,5]imidazo[1,2-d][1,4]diazepine] the value was no less than 8.00; for `c1cc2nc(-c3ccc4c(c3)nc3n4CCN(C4CCC4)CC3)cnc2[nH]1` [Compound 199, 3-cyclobutyl-8-(5H-pyrrolo[2,3-b]pyrazin-2-yl)-2,3,4,5-tetrahydro-1H-benzo[4,5]imidazo[1,2-d][1,4]diazepine], no less than 7.00. The figure for `c1cc2ncc(-c3ccc4c(c3)nc3n4CCN(C4CCC4)CC3)cc2[nH]1` [Compound 200, 3-cyclobutyl-8-(1H-pyrrolo[3,2-b]pyridin-6-yl)-2,3,4,5-tetrahydro-1H-benzo[4,5]imidazo[1,2-d][1,4]diazepine] is no less than 8.00; for `c1cc2ncc(-c3ccc4c(c3)nc3n4CCN(C4CCC4)CC3)cc2o1` [Compound 201, 6-(3-cyclobutyl-2,3,4,5-tetrahydro-1H-benzo[4,5]imidazo[1,2-d][1,4]diazepin-8-yl)furo[3,2-b]pyridine] it is no less than 8.00. Turning to `Cn1cnc2cc(-c3ccc4c(c3)nc3n4CCN(C4CCC4)CC3)cnc21` [Compound 202, 3-cyclobutyl-8-(3-methyl-3H-imidazo[4,5-b]pyridin-6-yl)-2,3,4,5-tetrahydro-1H-benzo[4,5]imidazo[1,2-d][1,4]diazepine], the pIC50 was no less than 8.00. For `c1nc2ccc(-c3ccc4c(c3)nc3n4CCN(C4CCC4)CC3)cn2n1` [Compound 203, 8-([1,2,4]triazolo[1,5-a]pyridin-6-yl)-3-cyclobutyl-2,3,4,5-tetrahydro-1H-benzo[4,5]imidazo[1,2-d][1,4]diazepine] the value was no less than 7.00; for `c1cc2c(cc1-c1ccc3nncn3c1)nc1n2CCN(C2CCC2)CC1` [Compound 204, 8-([1,2,4]triazolo[4,3-a]pyridin-6-yl)-3-cyclobutyl-2,3,4,5-tetrahydro-1H-benzo[4,5]imidazo[1,2-d][1,4]diazepine], no less than 8.00; for `Cn1ncc2ccc(-c3ccc4c(c3)nc3n4CCN(C4CCC4)CC3)cc21` [Compound 205, 3-cyclobutyl-8-(1-methyl-1H-indazol-6-yl)-2,3,4,5-tetrahydro-1H-benzo[4,5]imidazo[1,2-d][1,4]diazepine], no less than 7.00. For `Cn1cc2ccc(-c3ccc4c(c3)nc3n4CCN(C4CCC4)CC3)cc2n1` [Compound 206, 3-cyclobutyl-8-(2-methyl-2H-indazol-6-yl)-2,3,4,5-tetrahydro-1H-benzo[4,5]imidazo[1,2-d][1,4]diazepine] the value was no less than 7.00; for `Cc1nc2ccccc2n1-c1ccc2c(c1)nc1n2CCN(C2CCC2)CC1` [Compound 207, 3-cyclobutyl-8-(2-methyl-1H-benzo[d]imidazol-1-yl)-2,3,4,5-tetrahydro-1H-benzo[4,5]imidazo[1,2-d][1,4]diazepine], no less than 8.00; for `Cc1nc2ccc(F)cc2n1-c1ccc2c(c1)nc1n2CCN(C2CCC2)CC1` [Compound 208, 3-cyclobutyl-8-(6-fluoro-2-methyl-1H-benzo[d]imidazol-1-yl)-2,3,4,5-tetrahydro-1H-benzo[4,5]imidazo[1,2-d][1,4]diazepine], no less than 8.00.
